PubChem BioAssay (NCI)
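Step 1: Grow cells in 96-well plates. Step 2: Expose to compound for 48 hours at 5 concentrations. Step 3: Interpolate endpoints linearly; if unreached, use highest concentration. TGI is the concentration that stops growth completely.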

Columns and labels:
Assay in all cases: inhibition of tumour cell growth, NCI panel, 48 h
786-0 renal = system: 786-0 renal
A498 renal = system: A498 renal
DU-145 prostate = system: DU-145 prostate
HOP-62 NSCLC = system: HOP-62 NSCLC
HT29 colon = system: HT29 colon
LOX IMVI melanoma = system: LOX IMVI melanoma
NCI-H226 lung = system: NCI-H226 lung
NCI-H460 lung = system: NCI-H460 lung
OVCAR-5 ovarian = system: OVCAR-5 ovarian
T-47D breast = system: T-47D breast

Compound	TGI (786-0 renal)	TGI (A498 renal)	TGI (DU-145 prostate)	TGI (HOP-62 NSCLC)	TGI (HT29 colon)	TGI (LOX IMVI melanoma)	TGI (NCI-H226 lung)	TGI (NCI-H460 lung)	TGI (OVCAR-5 ovarian)	TGI (T-47D breast)
CC(C)=CCC[C@@H](C)C1=CC(=O)C(C)=C(O)C1=O	17.5 µM	34.9 µM	15.7 µM	25.7 µM	22.5 µM	11.9 µM	22.8 µM	43.1 µM	27.5 µM	6.35 µM
O=C1O[C@H]2C3C4CCC(C4[C@@H]2I)[C@H]13 (stereo not given in full)	> 100 µM	> 100 µM	> 100 µM	> 100 µM	> 100 µM	> 100 µM	> 100 µM	> 100 µM	> 100 µM	> 100 µM
COc1cc(/C=C/C(=N\NC(=S)NN)c2sc(NNC(C)=O)nc2C)ccc1O	> 100 µM	> 100 µM	> 100 µM	> 100 µM	> 100 µM	> 100 µM	> 100 µM	> 100 µM	> 100 µM	> 100 µM
COc1cc(O)cc(O)c1C(=O)CC(Cl)(Cl)Cl	> 100 µM	> 100 µM	> 100 µM	> 100 µM	> 100 µM	> 100 µM	> 100 µM	> 100 µM	> 100 µM	> 100 µM
